Experimental data from PMC12257413, “Discovery of a Novel sp^3‑Rich M1 Positive Allosteric Modulators (PAMs) Chemotype via Scaffold Hopping” (ACS Medicinal Chemistry Letters, 2025).
In brackets after ≈: the same amount, converted by molar mass. Where two headings read alike, the source gives them in different places.

Tests used:
Aqueous solubility = type: physicochemical; details: aqueous solution, aqueous buffer
ElogD 7.4 = type: physicochemical; details: pH 7.4
Description: 4 Detailed In Vitro and In Vivo Profiles for Selected M1 PAMs ^a | column: 17k; 17g

[1] = Brain to plasma ratio (PK/PBL cassette); type: in vivo; details: rat
Description: In vivo DMPK experimental:
Determination of brain to plasma ratio:
Sample Analysis: Concentrations in plasma and brain homogenates were quantified by liquid chromatography tandem mass spectrometry (LC-MS/MS). Whole brains were homogenized in 3 mL of 70:30 IPA:water in a mini bead beater for 3 min, and centrifuged at 3,500 g for 5 min. 5 uL of the supernatant was diluted in 15 uL of blank plasma for quantification of the analytes. Plasma samples were centrifuged at 3,500 g for 5 min. A standard curve was generated by diluting the analytes DMSO stocks with blank plasma to obtain a final concentration of 10,000 ng/ml followed by a serial dilution down to 0.5 ng/ml. […]
Plasma and brain tissue samples originating from in vivo studies were analyzed by electrospray ionization using an AB Sciex Q-TRAP 5500 (Foster City, CA) that was coupled to a Shimadzu LC-20AD pump (Columbia, MD) and a Leap Technologies CTC PAL auto-sampler (Carrboro, NC). […]
transitioning to 10% B over 0.05 min. […] All data were analyzed using AB Sciex Analyst 1.5.1 software.
Brain plasma concentration ratio (Kp) was calculated by dividing brain concentration by plasma concentration for each animal. Unbound brain to unbound plasma concentration ratio (Kp,uu) is calculated using the following formula: Kp,uu = (Brain ng/g x brain fu)/(plasma ng/ml x plasma fu).

[2] = pH 2.2, read-out: Solubility pH = 2.2
[3] = pH 6.8, read-out: Solubility pH = 6.8

Structure (SMILES) | solubility (Aqueous solubility; [2]) | solubility (Aqueous solubility; [3]) | chromatographic logD (ElogD 7.4) | Kp [1]
Cn1cc(-c2ccc(Cc3cc(C(=O)N[C@H]4CCOC[C@@H]4O)nn3C3CCCC3)cc2)cn1 [17g] | 84.6 µM (≈ 38 µg/mL) | 80.7 µM (≈ 36.3 µg/mL) | 3.05 | 0.12
Cn1cc(-c2ccc(Cc3cc(C(=O)N[C@H]4CCCC[C@@H]4O)nn3C3CCCC3)cc2)cn1 [17k] | 10.8 µM (≈ 4.83 µg/mL) | < 1.12 µM | 4.15 | 0.63
